Laboratory results from the supplement of paper PMC10307832.

Columns and labels:
Test in all cases: relative viability (nuclei count vs DMSO), 5 days (fraction); higher = more cells survive
NCI-H2009 = tested on: NCI-H2009
In short: (§1)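 After 5 days of treatment, lung cancer cells in 1536-well plates were fixed and stained in a single step (final 0.05% Triton X-100, 1% formaldehyde, 1 ug/ml Hoechst) and their nuclei counted on 4× images. Treatment had been applied by pin tool the day after seeding as one drug alone or as a fixed anchor-drug dose with five library-drug doses (not always all listed) in √10 steps. Relative viability is the nuclei count of treated wells divided by that of vehicle wells, and values are medians of duplicate plates.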

NCI-H1993 = tested on: NCI-H1993
In short: as §1

NCI-H1734 = tested on: NCI-H1734
In short: as §1

SW 1573 = tested on: SW 1573
In short: as §1

NCI-H2126 = tested on: NCI-H2126
In short: as §1

NCI-H727 = tested on: NCI-H727
In short: as §1

NCI-H2023 = tested on: NCI-H2023
In short: as §1

NCI-H1915 = tested on: NCI-H1915
In short: as §1

EPLC-272H = tested on: EPLC-272H
In short: as §1

NCI-H2347 = tested on: NCI-H2347
In short: as §1

H3255 = tested on: H3255
In short: as §1

NCI-H647 = tested on: NCI-H647
In short: as §1

NCI-H322M = tested on: NCI-H322M
In short: as §1

SK-LU-1 = tested on: SK-LU-1
In short: as §1

HOP-62 = tested on: HOP-62
In short: as §1

NCI-H2085 = tested on: NCI-H2085
In short: as §1

LCLC-97TM1 = tested on: LCLC-97TM1
In short: as §1

LXF-289 = tested on: LXF-289
In short: as §1

PC-14 = tested on: PC-14
In short: as §1

EMC-BAC-2 = tested on: EMC-BAC-2
In short: as §1

CC(=O)O[C@@]12CO[C@@H]1C[C@H](O)[C@@]1(C)C(=O)[C@H](O)C3=C(C)[C@@H](OC(=O)[C@H](O)[C@@H](NC(=O)OC(C)(C)C)c4ccccc4)C[C@@](O)([C@@H](OC(=O)c4ccccc4)[C@H]21)C3(C)C [Docetaxel] + CC1(C)CCC(c2ccc(Cl)cc2)=C(CN2CCN(c3ccc(C(=O)NS(=O)(=O)c4ccc(N[C@H](CCN5CCOCC5)CSc5ccccc5)c(S(=O)(=O)C(F)(F)F)c4)cc3)CC2)C1 [Navitoclax] (partner 0.5 µM)
relative viability (NCI-H2009; first compound 0.0002 µM): 1.15 | relative viability (NCI-H2009; first compound 0.000632 µM): 1.19 | relative viability (NCI-H2009; first compound 0.002 µM): 0.892 | relative viability (NCI-H2009; first compound 0.006325 µM): 0.575 | relative viability (NCI-H2009; first compound 0.02 µM): 0.117 | relative viability (NCI-H1993; first compound 0.0002 µM): 0.945 | relative viability (NCI-H1993; first compound 0.000632 µM): 0.873 | relative viability (NCI-H1993; first compound 0.002 µM): 0.703 | relative viability (NCI-H1993; first compound 0.006325 µM): 0.554 | relative viability (NCI-H1993; first compound 0.02 µM): 0.436 | relative viability (NCI-H1734; first compound 0.0002 µM): 0.697 | relative viability (NCI-H1734; first compound 0.000632 µM): 0.819 | relative viability (NCI-H1734; first compound 0.002 µM): 0.323 | relative viability (NCI-H1734; first compound 0.02 µM): 0.104 | relative viability (SW 1573; first compound 0.0002 µM): 1.06 | relative viability (SW 1573; first compound 0.000632 µM): 0.204 | relative viability (SW 1573; first compound 0.002 µM): 0.15 | relative viability (SW 1573; first compound 0.006325 µM): 0.0763 | relative viability (SW 1573; first compound 0.02 µM): 0.0456 | relative viability (NCI-H2126; first compound 0.0002 µM): 0.873 | relative viability (NCI-H2126; first compound 0.000632 µM): 0.954 | relative viability (NCI-H2126; first compound 0.002 µM): 0.735 | relative viability (NCI-H2126; first compound 0.006325 µM): 0.334 | relative viability (NCI-H2126; first compound 0.02 µM): 0.227 | relative viability (NCI-H727; first compound 0.0002 µM): 0.488 | relative viability (NCI-H727; first compound 0.000632 µM): 0.442 | relative viability (NCI-H727; first compound 0.002 µM): 0.308 | relative viability (NCI-H727; first compound 0.02 µM): 0.149 | relative viability (NCI-H2023; first compound 0.0002 µM): 1.01 | relative viability (NCI-H2023; first compound 0.000632 µM): 0.995 | relative viability (NCI-H2023; first compound 0.002 µM): 0.176 | relative viability (NCI-H2023; first compound 0.006325 µM): 0.168 | relative viability (NCI-H2023; first compound 0.02 µM): 0.0908 | relative viability (NCI-H1915; first compound 0.0002 µM): 0.789 | relative viability (NCI-H1915; first compound 0.000632 µM): 0.774 | relative viability (NCI-H1915; first compound 0.002 µM): 0.524 | relative viability (NCI-H1915; first compound 0.006325 µM): 0.102 | relative viability (NCI-H1915; first compound 0.02 µM): 0.0504 | relative viability (EPLC-272H; first compound 0.0002 µM): 1.12 | relative viability (EPLC-272H; first compound 0.000632 µM): 0.889 | relative viability (EPLC-272H; first compound 0.002 µM): 0.374 | relative viability (EPLC-272H; first compound 0.006325 µM): 0.126 | relative viability (EPLC-272H; first compound 0.02 µM): 0.0732 | relative viability (NCI-H2347; first compound 0.0002 µM): 0.844 | relative viability (NCI-H2347; first compound 0.000632 µM): 0.653 | relative viability (NCI-H2347; first compound 0.002 µM): 0.408 | relative viability (NCI-H2347; first compound 0.006325 µM): 0.359 | relative viability (NCI-H2347; first compound 0.02 µM): 0.258 | relative viability (H3255; first compound 0.0002 µM): 0.399 | relative viability (H3255; first compound 0.000632 µM): 0.46 | relative viability (H3255; first compound 0.002 µM): 0.181 | relative viability (H3255; first compound 0.006325 µM): 0.141 | relative viability (H3255; first compound 0.02 µM): 0.102 | relative viability (NCI-H647; first compound 0.0002 µM): 1.21 | relative viability (NCI-H647; first compound 0.000632 µM): 0.597 | relative viability (NCI-H647; first compound 0.002 µM): 0.245 | relative viability (NCI-H647; first compound 0.006325 µM): 0.125 | relative viability (NCI-H647; first compound 0.02 µM): 0.0526 | relative viability (NCI-H322M; first compound 0.0002 µM): 1.14 | relative viability (NCI-H322M; first compound 0.000632 µM): 1.13 | relative viability (NCI-H322M; first compound 0.002 µM): 0.962 | relative viability (NCI-H322M; first compound 0.006325 µM): 0.511 | relative viability (NCI-H322M; first compound 0.02 µM): 0.306 | relative viability (SK-LU-1; first compound 0.0002 µM): 0.721 | relative viability (SK-LU-1; first compound 0.000632 µM): 0.454 | relative viability (SK-LU-1; first compound 0.002 µM): 0.141 | relative viability (SK-LU-1; first compound 0.006325 µM): 0.215 | relative viability (SK-LU-1; first compound 0.02 µM): 0.112 | relative viability (HOP-62; first compound 0.0002 µM): 0.878 | relative viability (HOP-62; first compound 0.000632 µM): 0.552 | relative viability (HOP-62; first compound 0.002 µM): 0.312 | relative viability (HOP-62; first compound 0.02 µM): 0.0795 | relative viability (NCI-H2085; first compound 0.0002 µM): 1.05 | relative viability (NCI-H2085; first compound 0.000632 µM): 1.03 | relative viability (NCI-H2085; first compound 0.002 µM): 0.68 | relative viability (NCI-H2085; first compound 0.006325 µM): 0.476 | relative viability (NCI-H2085; first compound 0.02 µM): 0.232 | relative viability (LCLC-97TM1; first compound 0.000632 µM): 0.498 | relative viability (LCLC-97TM1; first compound 0.002 µM): 0.145 | relative viability (LCLC-97TM1; first compound 0.006325 µM): 0.168 | relative viability (LCLC-97TM1; first compound 0.02 µM): 0.11 | relative viability (LXF-289; first compound 0.0002 µM): 0.96 | relative viability (LXF-289; first compound 0.000632 µM): 0.796 | relative viability (LXF-289; first compound 0.002 µM): 0.585 | relative viability (LXF-289; first compound 0.006325 µM): 0.142 | relative viability (LXF-289; first compound 0.02 µM): 0.0718 | relative viability (PC-14; first compound 0.0002 µM): 0.978 | relative viability (PC-14; first compound 0.000632 µM): 0.961 | relative viability (PC-14; first compound 0.002 µM): 0.201 | relative viability (PC-14; first compound 0.006325 µM): 0.0826 | relative viability (PC-14; first compound 0.02 µM): 0.0464 | relative viability (EMC-BAC-2; first compound 0.0002 µM): 1.14 | relative viability (EMC-BAC-2; first compound 0.000632 µM): 1.11 | relative viability (EMC-BAC-2; first compound 0.002 µM): 0.735 | relative viability (EMC-BAC-2; first compound 0.006325 µM): 0.272 | relative viability (EMC-BAC-2; first compound 0.02 µM): 0.148
